{
  "source": "patent US11622956B1",
  "about": "“Compound and method for treating diseases and disorders” (priority 2019, dated 2023)",
  "origin": "cited, not measured here",
  "key": {"[1]": {"settings": "oral"}, "ataxia": {"tested_on": "ataxia", "settings": "high levels of hemp-derived CBD"}, "static ataxia": {"tested_on": "static ataxia", "settings": "dogs, IV"}, "joint pain": {"tested_on": "joint pain", "settings": "dogs"}},
  "data": [
    {"smiles": "C=C(C)[C@@H]1CCC(C)=C[C@H]1c1c(O)cc(CCCCC)cc1O", "note": "[CBD, Cannabidiol]", "values": [
      {"measurement": "fraction of orally administered CBD ultimately absorbed, at best", "setting": "[1]", "result": "15-20%"},
      {"measurement": "fraction of orally administered CBD ultimately absorbed, on average", "setting": "[1]", "result": "5-10%"},
      {"measurement": "dogs with ataxia", "setting": "ataxia", "result": "2 of the 10"}
    ]},
    {"smiles": "CCCCCc1cc(O)c2c(c1)OC(C)(C)[C@@H]1CCC(C)=C[C@@H]21", "note": "[THC, tetrahydrocannabinol]", "values": [
      {"measurement": "dose producing static ataxia", "setting": "static ataxia", "result": "> 0.5", "unit": "mg/kg"}
    ]},
    {"smiles": "COc1cccc(C2(O)CCCCC2CN(C)C)c1", "note": "(centres unmarked) [tramadol, Tramadol]", "values": [
      {"measurement": "peak vertical force or vertical impulse versus placebo", "setting": "joint pain", "result": "no improvement"}
    ]}
  ]
}
